{
  "source": "patent US7138361B2",
  "about": "“Herbicidal heterocycles” (E. I. du Pont de Nemours and Company, priority 2000, dated 2006)",
  "assay_type_in_all_cases": "in vivo",
  "key": {"[1]": {"test_system": "barnyardgrass (Echinochloa crus-galli)", "assay": "Test C flooded paddy test", "conditions": "for Barnyardgrass plant response rating: Flooded Paddy, scale 0 to 100, 0 no effect, 100 complete control; for Plant response rating, Barnyardgrass: flooded paddy test, scale 0 to 100 (0 no effect, 100 complete control)", "method_in_brief": "(§1)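 Ratings come from visual comparison with control plants after 12 to 14 days in the greenhouse. Each species was at the 2-leaf stage when the flooded paddy was treated. Scores run from 0, meaning no effect, to 100, meaning complete control.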"}, "[2]": {"test_system": "duck salad (Heteranthera limosa)", "assay": "Test C flooded paddy test", "conditions": "for Ducksalad plant response rating: Flooded Paddy, scale 0 to 100, 0 no effect, 100 complete control", "method_in_brief": "as §1"}, "[3]": {"test_system": "smallflower flatsedge (Cyperus difformis)", "assay": "Test C flooded paddy test", "conditions": "for Flatsedge plant response rating: Flooded Paddy, scale 0 to 100, 0 no effect, 100 complete control; for Plant response rating, Flatsedge: flooded paddy test, scale 0 to 100 (0 no effect, 100 complete control)", "method_in_brief": "as §1"}, "[4]": {"test_system": "morningglory (Ipomoea hederacea)", "assay": "Test C preemergence", "method_in_brief": "(§2)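 Each compound was dissolved in a non-phytotoxic solvent system containing a surfactant and sprayed either on freshly planted seeds (preemergence) or on young plants, 2 to 18 cm high (postemergence). Ratings after 12 to 14 greenhouse days ran from 0, no effect, to 100, complete control.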"}, "[5]": {"test_system": "Nightshade", "assay": "Test C preemergence"}, "[6]": {"test_system": "kochia (Kochia scoparia)", "assay": "Test C preemergence", "method_in_brief": "as §2"}, "[7]": {"test_system": "pigweed (Amaranthus retroflexus)", "assay": "Test C preemergence", "method_in_brief": "as §2"}, "[8]": {"test_system": "lambsquarters (Chenopodium album)", "assay": "Test C preemergence", "method_in_brief": "as §2"}, "[9]": {"test_system": "velvetleaf (Abutilon theophrasti)", "assay": "Test C preemergence", "method_in_brief": "as §2"}, "[10]": {"test_system": "giant foxtail (Setaria faberii)", "assay": "Test C preemergence", "method_in_brief": "as §2"}, "[11]": {"test_system": "Surinam grass (Brachiaria decumbens)", "assay": "Test C preemergence", "method_in_brief": "as §2"}, "[12]": {"test_system": "johnsongrass (Sorghum halepense)", "assay": "Test C preemergence", "method_in_brief": "as §2"}, "[13]": {"test_system": "cocklebur (Xanthium strumarium)", "assay": "Test C preemergence", "method_in_brief": "as §2"}, "[14]": {"test_system": "woolly cupgrass (Eriochloa villosa)", "assay": "Test C preemergence", "method_in_brief": "as §2"}, "[15]": {"test_system": "bermudagrass (Cynodon dactylon)", "assay": "Test C preemergence", "method_in_brief": "as §2"}, "[16]": {"test_system": "crabgrass (Digitaria sanguinalis)", "assay": "Test C preemergence", "method_in_brief": "as §2"}, "[17]": {"test_system": "Sunflower", "assay": "Test C preemergence", "conditions": "Rate 125 g/ha; scale 0 to 100, 0 no effect, 100 complete control"}, "[18]": {"test_system": "goosegrass (Eleusine indica)", "assay": "Test C preemergence", "method_in_brief": "as §2"}, "[19]": {"test_system": "common ragweed (Ambrosia elatior)", "assay": "Test C preemergence", "method_in_brief": "as §2"}, "[20]": {"test_system": "corn (Zea mays)", "assay": "Test C preemergence", "method_in_brief": "as §2"}, "[21]": {"test_system": "soybean (Glycine max)", "assay": "Test C preemergence", "method_in_brief": "as §2"}, "[22]": {"test_system": "yellow nutsedge (Cyperus esculentus)", "assay": "Test C preemergence", "method_in_brief": "as §2"}, "[23]": {"conditions": "Rate 125 g/ha, scale 0 to 100, 0 no effect, 100 complete control"}, "[24]": {"conditions": "preemergence, Rate 31 g/ha, scale 0 to 100"}, "[25]": {"conditions": "preemergence, Rate 62 g/ha, scale 0 to 100"}, "[26]": {"conditions": "preemergence, Rate 250 g/ha, scale 0 to 100, 0 no effect, 100 complete control"}},
  "data": [
    {"smiles": "CCCC(C)c1ccn(C2SCN(c3cccc(OC(F)(F)F)c3)C2=O)n1", "note": "(stereo not drawn) [Compound 90]", "values": [
      {"measurement": "Barnyardgrass plant response rating", "setting": "[1]; Rate 250 g/ha", "value": 90},
      {"measurement": "Barnyardgrass plant response rating", "setting": "[1]; Rate 500 g/ha", "value": 100},
      {"measurement": "Plant response rating, Barnyardgrass", "setting": "[1]; Rate 62 g/ha", "value": 30},
      {"measurement": "Plant response rating, Barnyardgrass", "setting": "[1]; Rate 125 g/ha", "value": 60},
      {"measurement": "Ducksalad plant response rating", "setting": "[2]; Rate 250 g/ha", "value": 90},
      {"measurement": "Ducksalad plant response rating", "setting": "[2]; Rate 500 g/ha", "value": 90},
      {"measurement": "Plant response rating, Ducksalad", "setting": "[2]; flooded paddy test, Rate 62 g/ha, scale 0 to 100 (0 no effect, 100 complete control)", "value": 80},
      {"measurement": "Flatsedge plant response rating", "setting": "[3]; Rate 250 g/ha", "value": 100},
      {"measurement": "Flatsedge plant response rating", "setting": "[3]; Rate 500 g/ha", "value": 100},
      {"measurement": "Plant response rating, Flatsedge", "setting": "[3]; Rate 62 g/ha", "value": 100},
      {"measurement": "Plant response rating, Flatsedge", "setting": "[3]; Rate 125 g/ha", "value": 100},
      {"measurement": "Plant response rating, Morningglory", "setting": "[4]; [23]", "value": 0},
      {"measurement": "Plant response rating, Morningglory", "setting": "[4]; [24]", "value": 0},
      {"measurement": "Plant response rating, Morningglory", "setting": "[4]; [25]", "value": 0},
      {"measurement": "Plant response rating, Morningglory", "setting": "[4]; [26]", "value": 0},
      {"measurement": "Plant response rating, Nightshade", "setting": "[5]; Rate 31 g/ha, scale 0 to 100", "value": 0},
      {"measurement": "Plant response rating, Nightshade", "setting": "[5]; Rate 62 g/ha, scale 0 to 100", "value": 0},
      {"measurement": "Plant response rating, Nightshade", "setting": "[5]; [23]", "value": 0},
      {"measurement": "Plant response rating, Nightshade", "setting": "[5]; Rate 250 g/ha, scale 0 to 100, 0 no effect, 100 complete control", "value": 0},
      {"measurement": "Plant response rating, Kochia", "setting": "[6]; [23]", "value": 40},
      {"measurement": "Plant response rating, Kochia", "setting": "[6]; [24]", "value": 0},
      {"measurement": "Plant response rating, Kochia", "setting": "[6]; [25]", "value": 0},
      {"measurement": "Plant response rating, Kochia", "setting": "[6]; [26]", "value": 80},
      {"measurement": "Plant response rating, Pigweed", "setting": "[7]; [23]", "value": 0},
      {"measurement": "Plant response rating, Pigweed", "setting": "[7]; [24]", "value": 0},
      {"measurement": "Plant response rating, Pigweed", "setting": "[7]; [25]", "value": 60},
      {"measurement": "Plant response rating, Pigweed", "setting": "[7]; [26]", "value": 100},
      {"measurement": "Plant response rating, Lambsquarters", "setting": "[8]; [23]", "value": 100},
      {"measurement": "Plant response rating, Lambsquarters", "setting": "[8]; [24]", "value": 10},
      {"measurement": "Plant response rating, Lambsquarters", "setting": "[8]; [25]", "value": 100},
      {"measurement": "Plant response rating, Lambsquarters", "setting": "[8]; [26]", "value": 100},
      {"measurement": "Plant response rating, Velvetleaf", "setting": "[9]; [23]", "value": 0},
      {"measurement": "Plant response rating, Velvetleaf", "setting": "[9]; [24]", "value": 0},
      {"measurement": "Plant response rating, Velvetleaf", "setting": "[9]; [25]", "value": 0},
      {"measurement": "Plant response rating, Velvetleaf", "setting": "[9]; [26]", "value": 0},
      {"measurement": "Plant response rating, Foxtail, Giant", "setting": "[10]; [23]", "value": 0},
      {"measurement": "Plant response rating, Foxtail, Giant", "setting": "[10]; [24]", "value": 0},
      {"measurement": "Plant response rating, Foxtail, Giant", "setting": "[10]; [25]", "value": 40},
      {"measurement": "Plant response rating, Foxtail, Giant", "setting": "[10]; [26]", "value": 40},
      {"measurement": "Plant response rating, Surinam grass", "setting": "[11]; [23]", "value": 10},
      {"measurement": "Plant response rating, Surinam grass", "setting": "[11]; [24]", "value": 0},
      {"measurement": "Plant response rating, Surinam grass", "setting": "[11]; [25]", "value": 0},
      {"measurement": "Plant response rating, Surinam grass", "setting": "[11]; [26]", "value": 40},
      {"measurement": "Plant response rating, Johnsongrass", "setting": "[12]; [23]", "value": 70},
      {"measurement": "Plant response rating, Johnsongrass", "setting": "[12]; [24]", "value": 10},
      {"measurement": "Plant response rating, Johnsongrass", "setting": "[12]; [25]", "value": 10},
      {"measurement": "Plant response rating, Johnsongrass", "setting": "[12]; [26]", "value": 100},
      {"measurement": "Plant response rating, Cocklebur", "setting": "[13]; [23]", "value": 0},
      {"measurement": "Plant response rating, Cocklebur", "setting": "[13]; [24]", "value": 0},
      {"measurement": "Plant response rating, Cocklebur", "setting": "[13]; [25]", "value": 0},
      {"measurement": "Plant response rating, Cocklebur", "setting": "[13]; [26]", "value": 0},
      {"measurement": "Plant response rating, Cupgrass, Woolly", "setting": "[14]; [23]", "value": 10},
      {"measurement": "Plant response rating, Cupgrass, Woolly", "setting": "[14]; [24]", "value": 0},
      {"measurement": "Plant response rating, Cupgrass, Woolly", "setting": "[14]; [25]", "value": 0},
      {"measurement": "Plant response rating, Cupgrass, Woolly", "setting": "[14]; [26]", "value": 60},
      {"measurement": "Plant response rating, Bermudagrass", "setting": "[15]; [23]", "value": 100},
      {"measurement": "Plant response rating, Bermudagrass", "setting": "[15]; [24]", "value": 0},
      {"measurement": "Plant response rating, Bermudagrass", "setting": "[15]; [25]", "value": 0},
      {"measurement": "Plant response rating, Bermudagrass", "setting": "[15]; [26]", "value": 100},
      {"measurement": "Plant response rating, Crabgrass", "setting": "[16]; [23]", "value": 100},
      {"measurement": "Plant response rating, Crabgrass", "setting": "[16]; [24]", "value": 80},
      {"measurement": "Plant response rating, Crabgrass", "setting": "[16]; [25]", "value": 80},
      {"measurement": "Plant response rating, Crabgrass", "setting": "[16]; [26]", "value": 100},
      {"measurement": "Plant response rating, Sunflower", "setting": "[17]", "value": 0},
      {"measurement": "Plant response rating, Goosegrass", "setting": "[18]; [23]", "value": 100},
      {"measurement": "Plant response rating, Goosegrass", "setting": "[18]; [24]", "value": 20},
      {"measurement": "Plant response rating, Goosegrass", "setting": "[18]; [25]", "value": 100},
      {"measurement": "Plant response rating, Goosegrass", "setting": "[18]; [26]", "value": 100},
      {"measurement": "Plant response rating, Ragweed, Common", "setting": "[19]; [23]", "value": 0},
      {"measurement": "Plant response rating, Ragweed, Common", "setting": "[19]; [24]", "value": 0},
      {"measurement": "Plant response rating, Ragweed, Common", "setting": "[19]; [25]", "value": 0},
      {"measurement": "Plant response rating, Ragweed, Common", "setting": "[19]; [26]", "value": 0},
      {"measurement": "Plant response rating, Corn", "setting": "[20]; [23]", "value": 0},
      {"measurement": "Plant response rating, Corn", "setting": "[20]; [24]", "value": 0},
      {"measurement": "Plant response rating, Corn", "setting": "[20]; [25]", "value": 0},
      {"measurement": "Plant response rating, Corn", "setting": "[20]; [26]", "value": 10},
      {"measurement": "Plant response rating, Soybean", "setting": "[21]; [23]", "value": 0},
      {"measurement": "Plant response rating, Soybean", "setting": "[21]; [24]", "value": 0},
      {"measurement": "Plant response rating, Soybean", "setting": "[21]; [25]", "value": 0},
      {"measurement": "Plant response rating, Soybean", "setting": "[21]; [26]", "value": 0},
      {"measurement": "Plant response rating, Nutsedge", "setting": "[22]; [23]", "value": 0},
      {"measurement": "Plant response rating, Nutsedge", "setting": "[22]; [24]", "value": 0},
      {"measurement": "Plant response rating, Nutsedge", "setting": "[22]; [25]", "value": 0},
      {"measurement": "Plant response rating, Nutsedge", "setting": "[22]; [26]", "value": 0}
    ]}
  ]
}
